Source: article PMC6949113, “Preclinical evaluation of AT-527, a novel guanosine nucleotide prodrug with potent, pan-genotypic activity against hepatitis C virus” (PLoS ONE, 2020)
Marks after values point to notes of the source that are not given here. Blank lines part the entries; values can stand above or below the molecule they belong to.

Experiments:
[1] = Monkey PK study, liver and heart tissue levels; format: in vivo, cynomolgus monkey; conditions: for Liver/Heart Ratio / Mean Concentration at 4 hr Postdose, Liver / Mean Concentration at 4 hr Postdose, Heart: monkey; for Liver/Heart Ratio: 4 h; for Mean Concentration at 4 hr Postdose, Heart: footnoted values extrapolated below LLOQ
Description: (§1) Monkey PK study. Male non-naïve cynomolgus monkeys were obtained from Hainan Jingang Laboratory Animal Co., Ltd. (Hainan, China), group housed during the 5-day acclimation period or individually housed during the study in stainless steel mesh cages, provided ad libitum access to RO water, fed twice daily (~120 g Certified Monkey Diet daily; Beijing Vital Keao Feed Co., Ltd., Beijing, China) and given daily treats of fresh fruit. Additional environmental enrichment included classical music and cartoons. Three groups of 5 monkeys each were administered 30, 100 or 300 mg/kg AT-527 as a powder filled in empty porcine hard gelatin capsules (size 0). The monkeys were fasted overnight prior to dosing and fed 4 h after dosing. Three dosages were selected to provide assessments of dose proportionality, the top two representing potential doses for a repeated oral dose toxicity study in monkeys, and the lowest predicted to be more therapeutically relevant. A pill gun was used to place the capsule beyond the root of the animals’ tongues and their mouths were held loosely closed for approximately 30 sec to allow them to move the jaw and swallow the capsule. Immediately following capsule administration, 20 mL of water was given by mouth and then the mouth was opened to ensure the capsule was swallowed. Blood samples (~0.6 mL) were collected up to 72 h from three animals per dose group, and up to 4 h from the remaining two animals in each group, at the same time points described for rats. […] Blood samples were collected with a syringe from a peripheral blood vessel from restrained, non-sedated animals, immediately transferred to pre-chilled tubes containing ~1 mg K2EDTA•2H20 and 20 μL of 5 mM dichlorvos solution, mixed and placed on ice until plasma was prepared by centrifugation as described for rats. Immediately after centrifugation, plasma samples were extracted with 4 volumes ISS2, and the supernatants were clarified by centrifugation (12,000 rpm, 10 min, 4°C) and stored at ≤ -60°C until analyzed by LC-MS/MS as described below. After the 4-hr blood collection, two monkeys per dose group were anesthetized with intravenous injection of pentobarbital sodium (60 mg/kg) and then euthanized as described for rats. […] All analytes were quantitated by LC-MS/MS as described below.
For the analysis of AT-9010 in rat tissue homogenate supernatant, aliquots were diluted 1:2 with water and injected onto an Agilent Zorbax Extend C18 5 μm, 2.1 × 50 mm column and a Sciex API 4000 mass spectrometer (ESI positive ion, MRM mode). Mobile phases A (0.001% ammonia and 0.18 mM DBAA in water (1:1, v/v) and B (10 mM dimethylhexylamine (DMHA) and 3 mM AA in 50% ACN in water) were used to elute samples (60 μL) at 0.7 mL/min with 2% B for 0.8 min followed by a linear gradient to 30% B over 0.4 min, isocratic elution at 30% B for 0.4 min, a linear gradient to 95% B over 0.4 min, and ending with 95% B for 0.4 min. The analysis of AT-9010 in monkey tissue homogenate supernatant was the same except the sample injection volume was 20 μL. Attempts to measure tissue levels of other potentially formed TPs, including 2,6-diaminopurine-2’-F-2’-C-methylribosyl-5’-triphosphate and 2-amino-6-methylaminopurine-2’-F-2’-C-methylribosyl-5’-triphosphate (M2-TP), also used this method.
For the analysis of M2 and M3 in monkey tissue homogenate supernatant, aliquots were diluted 1:3 with water and injected onto an Acuity HSS T3 1.8 μm, 2.1 × 50 mm column and a Sciex API 6500 mass spectrometer (ESI positive ion, MRM mode). Mobile phases A (0.3% FA and 10 mM AA in water and B (0.3% FA and 10 mM AA in 95% ACN in water) were used to elute samples (1 μL) at 0.6 mL/min with 0% B for 0.4 min followed by linear gradients to 30% B over 0.5 min and to 95% B over 0.2 min, ending with isocratic elution at 95% B for 0.4 min.

[2] = Intracellular metabolism in human hepatocytes; format: in vitro ADME
Description: Hepatocytes. […] Cryopreserved male mouse (CD1), and fresh male Beagle dog and male cynomolgus monkey hepatocytes were obtained from BioreclamationIVT (Baltimore, MD) and were similarly plated with Matrigel in 6- or 24-well plates and maintained overnight in InVitroGRO™HI medium with Torpedo™ antibiotic (BioreclamationIVT). The protocol described above for measuring AT-511 and its metabolites in Huh-7 cells was repeated with the five different hepatocytes. Untreated cells were collected at 24 h, and the protein content of the cell lysates were determined using a bicinchoninic acid protein assay kit to assess the number of cells in each incubation. Separately, plated human hepatocytes were incubated for 6 h with 100 μM AT-511, followed by washout periods of 0, 2, 6, 18 and 30 h.
S3 Protocol. LC-MS/MS analysis of AT-511 and metabolites in cultured cells. The supernatant extracts of each hepatocyte and Huh-7 cell incubation were separately analyzed by four different LC-MS/MS methods for quantitation of phosphoramidates, nucleosides, monophosphates, and triphosphates (methods 1, 2, 3 and 4, respectively), using synthetic reference standards of actually and potentially present compounds and using structurally related analogs as internal standards. Briefly, a Luna PFP (2), 5 µm, 100 x 4.6 mm column and an AB Sciex API-6500 mass spectrometer (ESI positive ion, MRM mode) were used for methods 1-3 and an XBridge Oligonucleotide, BEH C18, 2.5 µm, 50 x 2.1 mm column and a Thermo QE Plus mass spectrometer (electrospray, negative ion mode) were used for method 4. For methods 1 and 2, mobile phases A (10 mM ammonium acetate in water) and B (acetonitrile:methanol, 1:1, v/v) were used to elute samples (5 µL) at 1 mL/min with 15% B for 1.5 min followed by a linear gradient to 75% B over 1 min (method 1) or with 54% B for 1.3 min followed by a linear gradient to 90% B over 1.2 min. Method 3 was the same except mobile phase A was 0.3% acetic acid in water, […] and samples were eluted with 3% B for 3 min followed by a linear gradient to 55% B over 1.2 min. For method 4, mobile phase A (3 mM ammonium formate with 10 mM dimethylhexylamine (DMHA) in water) and mobile phase B (3 mM ammonium formate with 10 mM DMHA in acetonitrile:water, 1:1, v/v) were used to elute samples at 0.4 mL/min with 0% B for 1.5 min followed by a linear gradient to 100% B over 2 min and ending with an isocratic elution for 0.5 min at 100% B.

Monkey PK study, plasma = format: in vivo, cynomolgus monkey; conditions: for plasma concentration: male cynomolgus monkeys; for AUC(0-t) / Cmax / MRT last / Tmax: male, cynomolgus, cynomolgus monkey, in vivo, po
Description: as §1
LC-MS/MS analysis of rat and monkey plasma and tissue homogenate supernatants. For the analysis of AT-511 in rat plasma, aliquots were extracted with 10 volumes ISS2. The supernatants were clarified by centrifugation (4000 rpm for 10 min at 4°C) and 3 μL samples were injected onto an Acuity BEH C18 1.7 μm, 2.1 × 50 mm column and a Sciex API 4000 mass spectrometer (ESI positive ion, MRM mode). Mobile phases A (0.025% formic acid (FA) and 1 mM ammonium acetate (AA) in 5% ACN in water) and B (0.025% FA and 1 mM AA in 95% ACN in water) were used to elute samples (3 μL) at 0.6 mL/min with 10% B for 0.3 min followed by linear gradients to 60% B over 0.6 min and to 90% B over 0.2 min, and ending with 90% B for 0.4 min.
PK data analysis. […] The linear/log trapezoidal rule was applied in obtaining the PK parameters.

[3] = Rat pharmacokinetic study, plasma; format: in vivo, Sprague-Dawley rat; conditions: for plasma concentration, individual rats: AT-527 500 mg/kg oral, male 1-3, female 7-9, BQL: <0.0017 AT-511, <0.0022 M1, <0.0032 AT-273, M4
[4] = both sexes, Sprague-Dawley, rat, in vivo, po, 500 mg/kg

concentration in liver and heart tissue ([1]; cynomolgus monkey, in vivo): < 110 pmol/g | intracellular detection [2]: not detected
SMILES: CNc1nc(N)nc2c1ncn2[C@@H]1O[C@H](COP(=O)(O)OP(=O)(O)OP(=O)(O)O)[C@@H](O)[C@@]1(C)F [5’-TP of M2, 2-amino-6-methylaminopurine-2’-F-2’-C-methylribosyl-5’-triphosphate]

SMILES: CNc1nc(N)nc2c1ncn2[C@@H]1O[C@H](CO[P@@](=O)(N[C@@H](C)C(=O)OC(C)C)Oc2ccccc2)[C@@H](O)[C@@]1(C)F [AT-527]
unusual or adverse clinical signs (Monkey PK study, plasma; monkeys, single oral 30, 100 or 300 mg/kg): no such signs noted | unusual or adverse clinical signs ([3]; rats, single oral 500 mg/kg): no such signs noted

SMILES: CNc1nc(N)nc2c1ncn2[C@@H]1O[C@H](CO[P@](=O)(O)N[C@@H](C)C(=O)O)[C@@H](O)[C@@]1(C)F [M1]
plasma concentration (Monkey PK study, plasma; single oral AT-527 30 mg/kg, 0.500 h, monkey 1): BQL | plasma concentration (Monkey PK study, plasma; single oral AT-527 30 mg/kg, 48.0 h, monkey 1): BQL | plasma concentration (Monkey PK study, plasma; single oral AT-527 30 mg/kg, 48.0 h, monkey 2): BQL | plasma concentration (Monkey PK study, plasma; single oral AT-527 30 mg/kg, 72.0 h, monkey 1): BQL | plasma concentration (Monkey PK study, plasma; single oral AT-527 30 mg/kg, 72.0 h, monkey 2): BQL | plasma concentration (Monkey PK study, plasma; single oral AT-527 30 mg/kg, 72.0 h, monkey 3): BQL | plasma concentration (Monkey PK study, plasma; single oral AT-527 100 mg/kg, 48.0 h, monkey 1): BQL | plasma concentration (Monkey PK study, plasma; single oral AT-527 100 mg/kg, 48.0 h, monkey 2): BQL | plasma concentration (Monkey PK study, plasma; single oral AT-527 100 mg/kg, 72.0 h, monkey 1): BQL | plasma concentration (Monkey PK study, plasma; single oral AT-527 100 mg/kg, 72.0 h, monkey 2): BQL | plasma concentration (Monkey PK study, plasma; single oral AT-527 100 mg/kg, 72.0 h, monkey 3): BQL | plasma concentration (Monkey PK study, plasma; single oral AT-527 300 mg/kg, 0.500 h, monkey 1): BQL | plasma concentration (Monkey PK study, plasma; single oral AT-527 300 mg/kg, 48.0 h, monkey 2): BQL | plasma concentration (Monkey PK study, plasma; single oral AT-527 300 mg/kg, 48.0 h, monkey 3): BQL | plasma concentration (Monkey PK study, plasma; single oral AT-527 300 mg/kg, 72.0 h, monkey 1): BQL | plasma concentration (Monkey PK study, plasma; single oral AT-527 300 mg/kg, 72.0 h, monkey 2): BQL | plasma concentration (Monkey PK study, plasma; single oral AT-527 300 mg/kg, 72.0 h, monkey 3): BQL | AUC(0-t) (Monkey PK study, plasma; 30 mg/kg): 5.44 ± 2.76 µM·h | Cmax (Monkey PK study, plasma; 30 mg/kg): 0.94 ± 0.61 µM | MRT last (Monkey PK study, plasma; 30 mg/kg): 7.06 ± 1.07 h | Tmax (Monkey PK study, plasma; 30 mg/kg): 4.67 ± 2.31 h | AUC(0-t) (Monkey PK study, plasma; 100 mg/kg): 25.5 ± 10.1 µM·h | Cmax (Monkey PK study, plasma; 100 mg/kg): 4.24 ± 2.84 µM | MRT last (Monkey PK study, plasma; 100 mg/kg): 7.22 ± 0.48 h | AUC(0-t) (Monkey PK study, plasma; 300 mg/kg): 35.6 ± 26.4 µM·h | Cmax (Monkey PK study, plasma; 300 mg/kg): 4.44 ± 4.74 µM | MRT last (Monkey PK study, plasma; 300 mg/kg): 11.4 ± 3.6 h | Tmax (Monkey PK study, plasma; 300 mg/kg): 4.67 ± 1.16 h | Liver/Heart Ratio ([1]; AT-527 30 mg/kg oral): 3.7 | Liver/Heart Ratio ([1]; AT-527 100 mg/kg oral): 3.6 | Liver/Heart Ratio ([1]; AT-527 300 mg/kg oral): 5.6 | plasma concentration, individual rats ([3]; 48.0 h): BQL | plasma concentration, individual rats ([3]; 72.0 h): BQL | AUC(0-t) [3, 4]: 77.9 ± 20.3 µM·h | Cmax [3, 4]: 40.8 ± 9.7 µM | MRT last [3, 4]: 2.54 ± 0.41 h | Tmax [3, 4]: 0.58 ± 0.14 h

SMILES: CNc1nc(N)nc2c1ncn2[C@@H]1O[C@H](COP(=O)(O)O)[C@@H](O)[C@@]1(C)F [M2]
Mean Concentration at 4 hr Postdose, Liver ([1]; AT-527 30 mg/kg oral): 103 pmol/g | Liver/Heart Ratio ([1]; AT-527 30 mg/kg oral): 19^a | Mean Concentration at 4 hr Postdose, Heart ([1]; AT-527 30 mg/kg oral): 5.4^a pmol/g | Mean Concentration at 4 hr Postdose, Liver ([1]; AT-527 100 mg/kg oral): 479 pmol/g | Liver/Heart Ratio ([1]; AT-527 100 mg/kg oral): 48^a | Mean Concentration at 4 hr Postdose, Heart ([1]; AT-527 100 mg/kg oral): 9.9^a pmol/g | Mean Concentration at 4 hr Postdose, Liver ([1]; AT-527 300 mg/kg oral): 87.9 pmol/g | Liver/Heart Ratio ([1]; AT-527 300 mg/kg oral): 13^a | Mean Concentration at 4 hr Postdose, Heart ([1]; AT-527 300 mg/kg oral): 6.6^a pmol/g

SMILES: C[C@@]1(F)[C@H](O)[C@@H](COP(=O)(O)O)O[C@H]1n1cnc2c(=O)[nH]c(N)nc21 [M3]
Mean Concentration at 4 hr Postdose, Liver ([1]; AT-527 30 mg/kg oral): 78.8 pmol/g | Liver/Heart Ratio ([1]; AT-527 30 mg/kg oral): 11^a | Mean Concentration at 4 hr Postdose, Heart ([1]; AT-527 30 mg/kg oral): 7.5^a pmol/g | Mean Concentration at 4 hr Postdose, Liver ([1]; AT-527 100 mg/kg oral): 203 pmol/g | Liver/Heart Ratio ([1]; AT-527 100 mg/kg oral): 26^a | Mean Concentration at 4 hr Postdose, Heart ([1]; AT-527 100 mg/kg oral): 7.9^a pmol/g | Mean Concentration at 4 hr Postdose, Liver ([1]; AT-527 300 mg/kg oral): 1180 pmol/g | Liver/Heart Ratio ([1]; AT-527 300 mg/kg oral): 72 | Mean Concentration at 4 hr Postdose, Heart ([1]; AT-527 300 mg/kg oral): 16.5 pmol/g
